Results on seven compounds are retold here after PubChem BioAssay AID1745844 (Carcinogenic Potency Database (CPDB), 2022).

Each structure is given as a SMILES string. Active and inactive are the calls of the source. How the calls were made is not given here. Peptide text beside a SMILES is read from it.

The series has as its system rodent lifetime carcinogenesis bioassay, tumor incidence TD50. Briefly: chronic cancer bioassays in animals – CPDB, compiled studies (AID 1745844).

As for `O[C@H]([C@H](O)[C@@H](O)CBr)[C@H](O)CBr`, the TD50 (commonly the 50% point of the dose-response relation for the toxic effect studied) was 46.3 mg/kg/day (mouse, strain Swiss, females, i.p., site: all sites, lesion: leukemia, dosed 26 weeks, study length 78 weeks); 12.2 mg/kg/day (mouse, strain Swiss, females, i.p., site: all sites, lesion: lymphosarcoma, dosed 26 weeks, study length 78 weeks); 24.5 mg/kg/day (mouse, strain Swiss, females, i.p., site: any site (literature study), lesion: benign tumor, dosed 26 weeks, study length 78 weeks); 4.75 mg/kg/day (mouse, strain Swiss, females, i.p., site: any site (literature study), lesion: malignant tumor, dosed 26 weeks, study length 78 weeks); 2.45 mg/kg/day (mouse, strain Swiss, females, i.p., site: any site (literature study), lesion: several types, types named in the paper, dosed 26 weeks, study length 78 weeks); 9.23 mg/kg/day (mouse, strain Swiss, females, i.p., site: lung, lesion: several types, types named in the paper, dosed 26 weeks, study length 78 weeks). Also, the TD50 is, setting by setting: (mouse, strain Swiss, males, i.p., site: all sites, lesion: lymphatic leukemia, dosed 26 weeks, study length 78 weeks) 32.4 mg/kg/day; (mouse, strain Swiss, males, i.p., site: all sites, lesion: lymphosarcoma, dosed 26 weeks, study length 78 weeks) 17.6 mg/kg/day; (mouse, strain Swiss, males, i.p., site: any site (literature study), lesion: malignant tumor, dosed 26 weeks, study length 78 weeks) 15.2 mg/kg/day; (mouse, strain Swiss, males, i.p., site: any site (literature study), lesion: several types, types named in the paper, dosed 26 weeks, study length 78 weeks) 12.7 mg/kg/day; (mouse, strain Swiss, males, i.p., site: lung, lesion: several types, types named in the paper, dosed 26 weeks, study length 78 weeks) 13.5 mg/kg/day; (rat, strain Charles River CD (Sprague-Dawley), males, i.p., site: all sites, lesion: lymphosarcoma, dosed 26 weeks, study length 78 weeks) 182 mg/kg/day. Moreover, the TD50 (rat, strain Charles River CD (Sprague-Dawley), males, i.p., site: any site (literature study), lesion: malignant tumor, dosed 26 weeks, study length 78 weeks) worked out at 5.05 mg/kg/day; the TD50 (rat, strain Charles River CD (Sprague-Dawley), males, i.p., site: any site (literature study), lesion: several types, types named in the paper, dosed 26 weeks, study length 78 weeks) was 3.13 mg/kg/day; the TD50 (rat, strain Charles River CD (Sprague-Dawley), males, i.p., site: mammary gland, lesion: squamous-cell carcinoma, dosed 26 weeks, study length 78 weeks) worked out at 182 mg/kg/day; the TD50 (rat, strain Charles River CD (Sprague-Dawley), males, i.p., site: peritoneum, lesion: sarcoma, dosed 26 weeks, study length 78 weeks) is 59.2 mg/kg/day; the TD50 (rat, strain Charles River CD (Sprague-Dawley), males, i.p., site: skin, lesion: several types, types named in the paper, dosed 26 weeks, study length 78 weeks) is 8.37 mg/kg/day.

As to `CNc1ncnc2c1ncn2[C@@H]1O[C@H](CO)[C@@H](O)[C@H]1O`, the TD50 was 364 mg/kg/day (inactive) (mouse, strain Swiss CD-1, females, in drinking water, site: liver, lesion: several types, types named in the paper, dosed 34 weeks, study length 115 weeks); 108 mg/kg/day (inactive) (mouse, strain Swiss CD-1, males, in drinking water, site: liver, lesion: several types, types named in the paper, dosed 34 weeks, study length 118 weeks); 55.6 mg/kg/day (inactive) (mouse, strain Swiss CD-1, males, in drinking water, site: lung, lesion: one or several types, types not named, dosed 34 weeks, study length 118 weeks). Besides, where the note is “mouse, strain Swiss CD-1, females, in drinking water, site: lung, lesion: one or several types, types not named, dosed 34 weeks, study length 115 weeks”, the carcinogen call was “negative (inactive)”.

As to `CCCC[N+](=O)[O-]`, where the note is “rat, strain Fischer 344, males, by gavage, site: liver, lesion: one or several types, types not named, dosed 50 weeks, study length 83 weeks”, the carcinogen call is “negative (inactive)”.

For the compound `O=NN1CCCCCCC1`, the TD50 (rat, strain Fischer 344, males, in drinking water, site: esophagus, lesion: basal-cell carcinoma, dosed 50 weeks, study length 125 weeks) is 0.159 mg/kg/day; the TD50 (rat, strain Fischer 344, males, in drinking water, site: esophagus, lesion: several types, types named in the paper, dosed 25 weeks, study length 115 weeks) is 0.118 mg/kg/day; the TD50 (rat, strain Fischer 344, males, in drinking water, site: esophagus, lesion: several types, types named in the paper, dosed 100 weeks, study length 115 weeks) is 0.0735 mg/kg/day; the TD50 (rat, strain Fischer 344, males, in drinking water, site: liver, lesion: several types, types named in the paper, dosed 100 weeks, study length 115 weeks) is 0.198 mg/kg/day; the TD50 (rat, strain Fischer 344, males, in drinking water, site: tongue, lesion: basal-cell carcinoma, dosed 50 weeks, study length 125 weeks) is 0.171 mg/kg/day; the TD50 (rat, strain Fischer 344, males, in drinking water, site: tongue, lesion: basal-cell carcinoma, dosed 100 weeks, study length 115 weeks) is 0.105 mg/kg/day. In addition, the TD50 (rat, strain Fischer 344, males, in drinking water, site: upper gastrointestinal tract, lesion: carcinoma, dosed 25 weeks, study length 115 weeks) was 0.0363 mg/kg/day; the TD50 (rat, strain Fischer 344, males, in drinking water, site: upper gastrointestinal tract, lesion: several types, types named in the paper, dosed 25 weeks, study length 115 weeks) is 0.0512 mg/kg/day; the TD50 (rat, strain Fischer 344, males, in drinking water, site: upper gastrointestinal tract, lesion: several types, types named in the paper, dosed 50 weeks, study length 125 weeks) was 0.0571 mg/kg/day; the TD50 (rat, strain Fischer 344, males, in drinking water, site: upper gastrointestinal tract, lesion: several types, types named in the paper, dosed 100 weeks, study length 115 weeks) was 0.0292 mg/kg/day. For the same compound, the carcinogen call (rat, strain Fischer 344, males, in drinking water, site: liver, lesion: hepatocellular carcinoma, dosed 50 weeks, study length 125 weeks) is “positive”.

With `CCOc1ccccc1C(N)=O`, the TD50 is, setting by setting: (mouse, strain B6C3F1, females, in feed, site: liver, lesion: several types, types named in the paper, dosed 96 weeks, study length 100 weeks) 3310 mg/kg/day; (mouse, strain B6C3F1, males, in feed, site: liver, lesion: several types, types named in the paper, dosed 96 weeks, study length 100 weeks) 513 mg/kg/day.

For `O=C1OC2(c3ccccc31)c1cc(I)c(O)c(I)c1Oc1c2cc(I)c(O)c1I`, the carcinogen call was “negative (inactive)” (mouse, strain Charles River CD1, females, in feed, site: any site (literature study), lesion: benign tumor, dosed 104 weeks, study length 104 weeks); “negative (inactive)” (mouse, strain Charles River CD1, females, in feed, site: any site (literature study), lesion: malignant tumor, dosed 104 weeks, study length 104 weeks); “negative (inactive)” (mouse, strain Charles River CD1, females, in feed, site: any site (literature study), lesion: several types, types named in the paper, dosed 104 weeks, study length 104 weeks); “negative (inactive)” (rat, strain Osborne-Mendel, both sexes, by gavage, site: any site (literature study), lesion: malignant tumor, dosed 85 weeks, study length 104 weeks); “negative (inactive)” (rat, strain Osborne-Mendel, both sexes, by gavage, site: liver, lesion: one or several types, types not named, dosed 85 weeks, study length 104 weeks); “negative (inactive)” (rat, strain Osborne-Mendel, females, in feed, site: any site (literature study), lesion: several types, types named in the paper, dosed 104 weeks, study length 104 weeks). Besides, the carcinogen call reads like this: (rat, strain Slc-Wistar, females, in feed, site: any site (literature study), lesion: several types, types named in the paper, dosed 52 weeks, study length 52 weeks) “negative (inactive)”; (rat, strain Slc-Wistar, females, in feed, site: liver, lesion: one or several types, types not named, dosed 52 weeks, study length 52 weeks) “negative (inactive)”; (rat, strain Slc-Wistar, males, in feed, site: any site (literature study), lesion: several types, types named in the paper, dosed 52 weeks, study length 52 weeks) “negative (inactive)”; (rat, strain Slc-Wistar, males, in feed, site: liver, lesion: one or several types, types not named, dosed 52 weeks, study length 52 weeks) “negative (inactive)”; (rat, strain Sprague-Dawley, females, in feed, site: any site (literature study), lesion: one or several types, types not named, dosed 52 weeks, study length 52 weeks) “negative (inactive)”; (rat, strain Sprague-Dawley, females, in feed, site: liver, lesion: one or several types, types not named, dosed 52 weeks, study length 52 weeks) “negative (inactive)”. For the same compound, the TD50 reads like this: (mouse, strain Charles River CD1, males, in feed, site: all sites, lesion: lymphocytic lymphoma, dosed 104 weeks, study length 104 weeks) 3140 mg/kg/day (inactive); (mouse, strain Charles River CD1, males, in feed, site: any site (literature study), lesion: benign tumor, dosed 104 weeks, study length 104 weeks) 25900 mg/kg/day (inactive); (mouse, strain Charles River CD1, males, in feed, site: any site (literature study), lesion: malignant tumor, dosed 104 weeks, study length 104 weeks) 87600 mg/kg/day (inactive); (mouse, strain Charles River CD1, males, in feed, site: any site (literature study), lesion: several types, types named in the paper, dosed 104 weeks, study length 104 weeks) 17000 mg/kg/day; (rat, strain Osborne-Mendel, both sexes, by gavage, site: all sites, lesion: lymphosarcoma, dosed 85 weeks, study length 104 weeks) 122 mg/kg/day (inactive); (rat, strain Osborne-Mendel, both sexes, in feed, site: any site (literature study), lesion: malignant tumor, dosed 86 weeks, study length 104 weeks) 14100 mg/kg/day (inactive). For the same compound, the TD50 was 84900 mg/kg/day (inactive) (rat, strain Osborne-Mendel, both sexes, in feed, site: liver, lesion: hepatoma, dosed 86 weeks, study length 104 weeks) and 4810 mg/kg/day (inactive) (rat, strain Osborne-Mendel, males, in feed, site: any site (literature study), lesion: several types, types named in the paper, dosed 104 weeks, study length 104 weeks).

`COC(=O)[C@H](Cc1ccccc1)NC(=O)[C@@H](N)CC(=O)O` (H-Asp-Phe-OMe): the carcinogen call by setting is: (rat, strain Charles River CD (Sprague-Dawley), females, in feed, site: any site (literature study), lesion: several types, types named in the paper, dosed 104 weeks, study length 104 weeks) “negative (inactive)”; (rat, strain Charles River CD (Sprague-Dawley), females, in feed, site: liver, lesion: hepatoma, benign, dosed 104 weeks, study length 104 weeks) “negative (inactive)”; (rat, strain Charles River CD (Sprague-Dawley), males, in feed, site: any site (literature study), lesion: several types, types named in the paper, dosed 104 weeks, study length 104 weeks) “negative (inactive)”; (rat, strain Slc-Wistar, females, in feed, site: brain, lesion: several types, types named in the paper, dosed 104 weeks, study length 104 weeks) “negative (inactive)”. The TD50 is, setting by setting: (rat, strain Charles River CD (Sprague-Dawley), females, in feed, site: brain, lesion: several types, types named in the paper, dosed 104 weeks, study length 104 weeks) 118000 mg/kg/day (inactive); (rat, strain Charles River CD (Sprague-Dawley), males, in feed, site: brain, lesion: several types, types named in the paper, dosed 104 weeks, study length 104 weeks) 666000 mg/kg/day (inactive); (rat, strain Charles River CD (Sprague-Dawley), males, in feed, site: liver, lesion: hepatoma, benign, dosed 104 weeks, study length 104 weeks) 1.3e+06 mg/kg/day (inactive); (rat, strain Slc-Wistar, males, in feed, site: brain, lesion: several types, types named in the paper, dosed 104 weeks, study length 104 weeks) 186000 mg/kg/day (inactive).
